Laboratory results taken from patent US20250213701A1, “MEDICAMENT FOR TREATING HUMAN TUMOR BASED ON ERF3A-TARGETING PROTEOLYSIS MECHANISM” (SUZHOU DEGEN BIO-MEDICAL CO., LTD., priority 2022, published 2025).

How the values were obtained:
Type in all cases: cell-based, human
PC-3 cells = assay: Anti-proliferative toxicity against prostate cancer cell line PC-3 (CCK8); conditions: Homo sapiens, 72 h, 3 days
Procedure: (§1) Example 82: Detection of Anti-Proliferative Toxicity Against Prostate Cancer Cell Lines Vcap, 22Rv1, and PC-3
PC-3 cells (purchased from the Cell Bank of the Chinese Academy of Sciences, Cat. No. SCSP-532) were subcultured in a culture medium (F12K medium+1% penicillin-streptomycin dual-antibiotic solution+10% fetal bovine serum) in an incubator at 5% carbon dioxide and 37° C.
PC-3 cells were seeded at 4000 cells/well (90 μL) on a 96-well plate and cultured for 24 h.
(§2) 10 mM compound stock solutions were prepared in DMSO.
(§3) For 22Rv1 cells and PC-3 cells, the compound stock solution was diluted with DMSO to give DMSO solutions 11-19 at concentrations of 0 μM, 500 μM, 100 μM, 20 μM, 4 μM, 0.8 μM, 0.16 μM, 0.032 μM, 0.0064 μM.
For PC-3 cells, 2 μL of each of the above solutions 11-19 was added to 98 μL of PC-3 medium to give mixed solutions 39-47 of the compound and the medium.
(§4) For 22Rv1 and PC-3 cells, 10 μL of each of the above solutions 30-38 or 39-47 was added to the above cell seed solution to give a total volume of 100 μL (90 μL+10 μL), where the concentrations of the compound in wells were 0 μM, 1.0 μM, 0.2 μM, 0.04 μM, 0.008 μM, 0.0016 μM, 0.00032 μM, 0.00006 μM, and 0.00001 μM. All concentrations were in triplicate.
(§5) After the above-treated cells were cultured for 3 days, 10 μL of the CCK8 solution (DOJINDO, Cat. No. PF725) was added to each well. The plate was incubated in an incubator at 37° C. for 1-4 h and then detected on a microplate reader for the reading at 450 nm.

VCaP cells = assay: Anti-proliferative toxicity against prostate cancer cell line Vcap (CCK8); conditions: Homo sapiens, 72 h, 3 days, CCK8
Procedure: as §1
(§6) Vcap cells (purchased from the Cell Bank of the Chinese Academy of Sciences, Cat. No. SCSP-5034) were subcultured in a culture medium (DMEM medium+1% penicillin-streptomycin dual-antibiotic solution+10% fetal bovine serum) in an incubator at 5% carbon dioxide and 37° C. 22Rv1 cells (purchased from the Cell Bank of the Chinese Academy of Sciences, Cat. No. TCHu100) were subcultured in a culture medium (RPMI-1640 medium+1% penicillin-streptomycin dual-antibiotic solution+10% fetal bovine serum) in an incubator at 5% carbon dioxide and 37° C.
VCap cells were seeded at 20000 cells/well (90 μL) on a 96-well plate and cultured for 72 h. The original medium was removed, and a new medium of 90 μL was added.
as §2
For VCap cells, the compound stock solution was diluted with DMSO to give DMSO solutions 1-10 at concentrations of 0 μM, 80 μM, 16 μM, 3.2 μM, 1.5 μM, 0.5 μM, 0.15 μM, 0.05 μM, 0.025 μM, and 0.0005 μM.
For Vcap cells, 2 μL of each of the above solutions 1-10 was added to 98 μL of Vcap medium to give mixed solutions 20-29 of the compound and the medium.
For Vcap cells, 10 μL of each of the above solutions 20-29 was added to the above cell seed solution to give a total volume of 100 μL (90 μL+10 μL), where the concentrations of the compound in wells were 0 μM, 0.16 μM, 0.032 μM, 0.006 μM, 0.003 μM, 0.001 μM, 0.0003 μM, 0.0001 μM, 0.00005 μM, and 0.00001 μM. All concentrations were in triplicate.
as §5

22Rv1 cells = assay: Anti-proliferative toxicity against prostate cancer cell line 22Rv1 (CCK8); conditions: Homo sapiens, 72 h, 3 days, CCK8
Procedure: as §1, §6
22Rv1 cells were seeded at 5000 cells/well (90 μL) on a 96-well plate and cultured for 48 h.
as §2, §3
For 22Rv1 cells, 2 μL of each of the above solutions 11-19 was added to 98 μL of 22Rv1 medium to give mixed solutions 30-38 of the compound and the medium.
as §4, §5

Structure (SMILES)	IC50 (PC-3 cells) [nM]	IC50 (VCaP cells) [nM]	IC50 (22Rv1 cells) [nM]
C[C@]12C=CC(=O)N[C@@H]1CC[C@@H]1[C@@H]2CC[C@]2(C)[C@@H](C(=O)Nc3ccc(OCCCNc4ccc5c(c4)C(=O)N(C4CCC(=O)NC4=O)C5=O)cc3)CC[C@@H]12 (stereo partly drawn) [C18, N-(4-((3-((5-(2-(3-(2,6-dioxopiperidine))-isoindole-1,3-dione))amino)propyl)oxy)phenyl)-3-oxo-4-aza-5α-androst-1-ene-17β-carboxamide]	> 1000	> 1000	> 1000
C[C@]12C=CC(=O)N[C@@H]1CC[C@@H]1[C@@H]2CC[C@]2(C)[C@@H](C(=O)Nc3cccc(OCCCCCCNc4ccc5c(c4)C(=O)N(C4CCC(=O)NC4=O)C5=O)c3)CC[C@@H]12 (stereo partly drawn) [C36, N-(3-((6-((5-(2-(3-(2,6-dioxopiperidine))-isoindole-1,3-dione))amino)hexyl)oxy)phenyl)-3-oxo-4-aza-5α-androst-1-ene-17β-carboxamide]	> 1000	> 1000	> 1000
C[C@]12C=CC(=O)N[C@@H]1CC[C@@H]1[C@@H]2CC[C@]2(C)[C@@H](C(=O)Nc3cccc(OCCCNc4ccc5c(c4)C(=O)N(C4CCC(=O)NC4=O)C5=O)c3)CC[C@@H]12 (stereo partly drawn) [C30, N-(3-((3-((5-(2-(3-(2,6-dioxopiperidine))-isoindole-1,3-dione))amino)propyl)oxy)phenyl)-3-oxo-4-aza-5α-androst-1-ene-17β-carboxamide]	> 1000	> 1000	> 1000
C[C@]12C=CC(=O)N[C@@H]1CC[C@@H]1[C@@H]2CC[C@]2(C)[C@@H](C(=O)NCCCCCCNc3ccc4c(c3)C(=O)N(C3CCC(=O)NC3=O)C4=O)CC[C@@H]12 (stereo partly drawn) [C10, N-(6-((5-(2-(3-(2,6-dioxopiperidine))-isoindole-1,3-dione))amino)hexyl)-3-oxo-4-aza-5α-androst-1-ene-17β-carboxamide]	> 1000	> 1000	> 1000
C[C@]12C=CC(=O)N[C@@H]1CC[C@@H]1[C@@H]2CC[C@]2(C)[C@@H](C(=O)Nc3cccc(NCCNc4cccc5c4C(=O)N(C4CCC(=O)NC4=O)C5=O)c3)CC[C@@H]12 (stereo partly drawn) [C56, N-(3-((2-((4-(2-(3-(2,6-dioxopiperidine))-isoindole-1,3-dione))amino)ethyl)amino)phenyl)-3-oxo-4-aza-5α-androst-1-ene-17β-carboxamide]	> 1000	> 1000	> 1000
C[C@]12C=CC(=O)N[C@@H]1CC[C@@H]1[C@@H]2CC[C@]2(C)[C@@H](C(=O)Nc3cccc(OCCCOc4cccc5c4C(=O)N(C4CCC(=O)NC4=O)C5=O)c3)CC[C@@H]12 (stereo partly drawn) [C46, N-(3-((3-((4-(2-(3-(2,6-dioxopiperidine))-isoindole-1,3-dione))oxy)propyl)oxy)phenyl)-3-oxo-4-aza-5α-androst-1-ene-17β-carboxamide]	> 1000	0.1 to 10	0.1 to 10
C[C@]12C=CC(=O)N[C@@H]1CC[C@@H]1[C@@H]2CC[C@]2(C)[C@@H](C(=O)Nc3ccc(OCCCCCCCNc4ccc5c(c4)C(=O)N(C4CCC(=O)NC4=O)C5=O)cc3)CC[C@@H]12 (stereo partly drawn) [C24, N-(4-((7-((5-(2-(3-(2,6-dioxopiperidine))-isoindole-1,3-dione))amino)heptyl)oxy)phenyl)-3-oxo-4-aza-5α-androst-1-ene-17β-carboxamide]	> 1000	> 1000	> 1000
C[C@]12C=CC(=O)N[C@@H]1CC[C@@H]1[C@@H]2CC[C@]2(C)[C@@H](C(=O)Nc3cccc(OCCCCCNc4cccc5c4C(=O)N(C4CCC(=O)NC4=O)C5=O)c3)CC[C@@H]12 (stereo partly drawn) [C33, N-(3-((5-((4-(2-(3-(2,6-dioxopiperidine))-isoindole-1,3-dione))amino)pentyl)oxy)phenyl)-3-oxo-4-aza-5α-androst-1-ene-171β-carboxamide]	> 1000	> 1000	> 1000
